Test results reported in the supplement of paper PMC10307832.

What was measured:
Assay in all cases: relative viability (nuclei count vs DMSO), 5 days (fraction); higher = more cells survive
Vandetanib + AZD7762 = compound: COc1cc2/c(=N/c3ccc(Br)cc3F)nc[nH]c2cc1OCC1CCN(C)CC1 [Vandetanib] + NC(=O)Nc1cc(-c2cccc(F)c2)sc1C(=O)N[C@H]1CCCNC1 [AZD7762] (partner 0.2 µM)
How it was run: (§1)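 A single step with final 0.05% Triton X-100, 1% formaldehyde and 1 ug/ml Hoechst fixed the cells and stained nuclei 5 days after treatment. Lung cancer cell lines in 1536-well plates had been treated by pin tool the day after seeding with one drug alone or a fixed anchor-drug dose plus five library-drug doses (not always all listed) in √10 steps, and nuclei were counted on 4× images. Relative viability is the ratio of nuclei in treated wells to nuclei in vehicle wells, taken as the median of duplicate plates.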

NVP-TAE684 + Trametinib = compound: COc1cc(N2CCC(N3CCN(C)CC3)CC2)ccc1Nc1ncc(Cl)c(Nc2ccccc2S(=O)(=O)C(C)C)n1 [NVP-TAE684] + CC(=O)Nc1cccc(-n2c(=O)n(C3CC3)c(=O)c3c(Nc4ccc(I)cc4F)n(C)c(=O)c(C)c32)c1 [Trametinib] (partner 0.02 µM)
How it was run: as §1

[1] = compound: C1=CC=C2C(=C1)N=C(S2)C(C#N)C3=NC(=NC=C3)NCCC4=CN=CC=C4 + CC1(C)CCC(c2ccc(Cl)cc2)=C(CN2CCN(c3ccc(C(=O)NS(=O)(=O)c4ccc(N[C@H](CCN5CCOCC5)CSc5ccccc5)c(S(=O)(=O)C(F)(F)F)c4)cc3)CC2)C1 [Navitoclax] (partner 0.5 µM)
How it was run: as §1

CUDC-101 + Palbociclib = compound: C#Cc1cccc(Nc2ncnc3cc(OC)c(OCCCCCCC(=O)NO)cc23)c1 [CUDC-101] + CC(=O)c1c(C)c2cnc(Nc3ccc(N4CCNCC4)cn3)nc2n(C2CCCC2)c1=O [Palbociclib] (partner 0.5 µM)
How it was run: as §1

Cell Line	relative viability (Vandetanib + AZD7762; first compound 0.02 µM)	relative viability (Vandetanib + AZD7762; first compound 0.06325 µM)	relative viability (Vandetanib + AZD7762; first compound 0.2 µM)	relative viability (Vandetanib + AZD7762; first compound 0.6325 µM)	relative viability (Vandetanib + AZD7762; first compound 2 µM)	relative viability (NVP-TAE684 + Trametinib; first compound 0.2 µM)	relative viability (NVP-TAE684 + Trametinib; first compound 0.6325 µM)	relative viability (NVP-TAE684 + Trametinib; first compound 2 µM)	relative viability ([1]; first compound 0.005 µM)	relative viability ([1]; first compound 0.01581 µM)	relative viability ([1]; first compound 0.05 µM)	relative viability ([1]; first compound 0.1581 µM)	relative viability ([1]; first compound 0.5 µM)	relative viability (CUDC-101 + Palbociclib; first compound 0.01 µM)	relative viability (CUDC-101 + Palbociclib; first compound 0.03162 µM)	relative viability (CUDC-101 + Palbociclib; first compound 0.1 µM)	relative viability (CUDC-101 + Palbociclib; first compound 0.3162 µM)	relative viability (CUDC-101 + Palbociclib; first compound 1 µM)
NCI-H1666	0.83	0.772	0.734	0.814	0.722	0.818	0.836	0.714	0.841	0.937	0.965	1.05	0.797	0.64	0.661	0.661	0.599	0.664
NCI-H1993	0.737	0.74	0.861	0.78	0.555	0.359	0.461	0.521	0.911	0.802	0.896	0.929	0.81	0.837	0.656	0.592	0.618	0.482
NCI-H1437	1.16	1.12	1.1	1.2	1.09	0.523	0.444	0.225	1.02	1.15	1.14	1.17	1.08	0.287	0.327	0.302	0.342	0.302
NCI-H727	0.482	0.489	0.651	0.562	0.635	0.406	0.349	0.308	0.465	0.334	0.347	0.414	0.397	0.642	0.61	0.563	0.714	0.57
PC-3 [JPC-3]	0.766	0.729	0.591	0.512	0.419	0.721	0.572	0.58	0.776	0.835	0.731	0.819	0.843	0.465	0.574	0.493	0.527	0.481
NCI-H1792	0.654	0.656	0.607	0.5	0.673	0.413	0.388	0.271		0.571	0.631	0.961	0.451	0.675	0.649	0.7	0.675	0.647
NCI-H1355	0.741	0.742	0.755	0.66	0.653	0.399	0.398	0.3	0.975	0.959	0.906	1.03	0.975	0.392	0.429	0.399	0.376	0.37
HCC-827	0.211	0.204	0.165	0.126	0.124	0.478	0.529	0.442	1.07	1.07	1.02	1.05	1.04	0.35	0.283	0.155	0.169	0.142
NCI-H1944	0.489	0.611	0.555	0.462	0.471	0.41	0.41	0.364	1.05	1.06	0.983	1.06	1.04	0.33	0.298	0.322	0.311	0.216
NCI-H2405	0.703	0.651	0.674	0.698	0.571	0.578	0.556	0.336	0.828	0.936	0.815	0.862	0.859	0.523	0.513	0.585	0.584	0.506
HCC-366	0.205	0.317	0.284	0.243	0.286	0.352	0.374	0.14	0.853	0.998	1.04	1.28	0.98	0.411	0.442	0.389	0.39	0.296
NCI-H838	0.902	0.895	0.976	1.03	0.894	0.566	0.407	0.202	1.02	1.22	1.16	1.1	1.22	0.213	0.221	0.233	0.26	0.214
HOP-62	0.661	0.536	0.577	0.412	0.485	0.404	0.338	0.377	0.854	1.25	1.05	1.16	0.871	0.448	0.38	0.478	0.421	0.425
NCI-H2170	0.822	0.8	0.893	0.781	0.835	0.861	0.947	0.916		0.587	0.59	0.626	0.566	0.419	0.402	0.385	0.37	0.361
NCI-H1651	0.431	0.425	0.462	0.442	0.486		0.86	0.771	0.9	1.08	0.95	1.11	1.17	0.548	0.543	0.497	0.529	0.493
NCI-H460	0.497	0.624	0.57	0.466	0.581	0.173	0.16	0.0273		1.38	1.13	1.23	0.656	0.277	0.223	0.135	0.149	0.0952
NCI-H1734	0.554	0.511	0.557	0.517	0.545	0.696	0.673	0.517	0.58	1.05	0.886	0.932	0.664	0.357	0.374	0.342	0.382	0.274
NCI-H1915	0.696	0.664	0.693	0.612	0.719	0.298	0.304	0.507	0.802	0.805	0.762	0.77	0.775	0.547	0.493	0.524	0.472	0.339

Cell Line	relative viability (Vandetanib + AZD7762; first compound 0.02 µM)	relative viability (Vandetanib + AZD7762; first compound 0.06325 µM)	relative viability (Vandetanib + AZD7762; first compound 0.2 µM)	relative viability (Vandetanib + AZD7762; first compound 0.6325 µM)	relative viability (Vandetanib + AZD7762; first compound 2 µM)	relative viability (NVP-TAE684 + Trametinib; first compound 0.2 µM)	relative viability (NVP-TAE684 + Trametinib; first compound 0.6325 µM)	relative viability (NVP-TAE684 + Trametinib; first compound 2 µM)	relative viability ([1]; first compound 0.005 µM)	relative viability ([1]; first compound 0.01581 µM)	relative viability ([1]; first compound 0.05 µM)	relative viability ([1]; first compound 0.1581 µM)	relative viability ([1]; first compound 0.5 µM)	relative viability (CUDC-101 + Palbociclib; first compound 0.01 µM)	relative viability (CUDC-101 + Palbociclib; first compound 0.03162 µM)	relative viability (CUDC-101 + Palbociclib; first compound 0.1 µM)	relative viability (CUDC-101 + Palbociclib; first compound 0.3162 µM)	relative viability (CUDC-101 + Palbociclib; first compound 1 µM)
NCI-H1975	0.701	0.663	0.645	0.687	0.617	0.325	0.335	0.215	0.852	1.15	1.03	1.18	0.695	0.535	0.623	0.601	0.673	0.536
NCI-H2087	1.38	1.23	1.54	1.4	1.49	0.175	0.211	0.168	0.986	1.01	1.16	1	0.927	0.284	0.21	0.238	0.264	0.168
LCLC-97TM1	0.185	0.306	0.299	0.261	0.139	0.202	0.219	0.09	0.382	0.429	0.339	0.596	0.288	0.203	0.228	0.252	0.173	0.164
EPLC-272H	0.23	0.428	0.244	0.201	0.189	0.296	0.25	0.243	0.94	1.05	1.14	1.04	1.08	0.318	0.314	0.279	0.282	0.261
CAL-12T	0.676	0.611	0.631	0.643	0.574	0.283	0.251	0.127	0.993	1.38	1.11	1.35	0.993	0.81	0.448	0.333	0.412	0.34
NCI-H1755	0.455	0.436	0.42	0.437	0.503	0.769	0.846	0.729	0.968	1.1	1	1.15	0.948	0.431	0.472	0.507	0.469	0.435
H3255	0.898	0.812	0.824	0.636	0.377	0.569	0.611	0.631	0.591	0.424	0.567	0.689	0.624	0.335	0.351	0.324	0.292	0.238
NCI-H441	1.12	0.945	1.02	1.31	1.34	0.359	0.333	0.263		0.625	0.513	0.575	0.48	0.222	0.255	0.183	0.231	0.221
NCI-H1793	0.514	0.409	0.331	0.286	0.397	0.468	0.303	0.414	0.31	0.398	0.519	0.456	0.509	0.275	0.272	0.36	0.253	0.247
LK-2	0.36	0.345	0.309	0.369	0.515		0.673	0.326		0.931	0.824	0.916	0.843	0.824	0.662	0.574	0.593	0.194
HCC-78	0.591	0.669	0.596	0.645	0.609	0.603	0.57	0.401	0.454	0.774	0.623	0.912	0.818	0.44	0.483	0.458	0.427	0.374
ChaGo-K-1	0.878	0.886	0.893	0.816	0.896	0.899	0.843	0.58	0.955		0.838	1.21	0.954	0.918	0.908	0.94	0.909	0.738
NCI-H2126	1.03	0.938	1.01	0.971	1	0.628	0.637	0.388	0.91	0.913	0.782	0.831	0.842	0.355	0.346	0.337	0.364	0.352
RERF-LC-KJ		0.985	1.06	1.04	0.766	0.861	0.772	0.664	1.29	0.811	0.804	0.843	0.875	1.15	1.16	1.01	0.844	0.813
NCI-H3122	0.917	1	1.01	0.926	1.01	0.12	0.148	0.0944	0.935	1.04	0.984	1.04	1.01	0.206	0.214	0.187	0.177	0.175
NCI-H322M	0.518	0.567	0.605	0.496	0.374	0.589	0.447	0.294	1.24	1.24	1.23	1.49	1.18	0.515	0.47	0.465	0.497	0.436
NCI-H647	0.404	0.481	0.395	0.404	0.446	0.483	0.489	0.216		1.22	0.955	1.34	0.979	0.417	0.345	0.383	0.386	0.253
